Conditions: Capillary rise

COC(C)(C)C [2-methoxy-2-methylpropane]
Conditions	surface tension liquid-gas [mN/m]
243.08 K	24.08
248.01 K	23.43
253.11 K	22.84
258.13 K	22.32
263.1 K	21.65
268.13 K	20.97
273.16 K	20.52
278.11 K	19.99
283.12 K	19.35
288.13 K	18.96
293.07 K	18.53
298.08 K	17.75
303.11 K	17.23
308.15 K	16.71
313.16 K	16.25
318.11 K	15.61
323.16 K	15.09
328.14 K	14.52
333.15 K	14.02
338.16 K	13.56
343.13 K	13.06
348.13 K	12.5
353.13 K	11.94
358.15 K	11.55
363.13 K	10.92
368.13 K	10.53
373.12 K	9.946
378.12 K	9.534
383.12 K	8.956
388.14 K	8.518
393.13 K	8.006

COCOC [dimethoxymethane]
Conditions	surface tension liquid-gas [mN/m]
238.07 K	28.12
243.12 K	27.42
248.13 K	26.76
253.12 K	26.21
258.12 K	25.63
263.08 K	24.83
268.09 K	24.23
273.09 K	23.63
278.08 K	23.11
283.07 K	22.39
288.08 K	21.75
293.05 K	21.02
298.04 K	20.36
303.16 K	19.7
308.15 K	18.99
313.16 K	18.4
318.16 K	17.67
323.15 K	17.16
328.13 K	16.56
333.16 K	15.88
338.16 K	15.32
343.15 K	14.65
348.14 K	14.02
353.15 K	13.34
358.15 K	12.83
363.15 K	12.27
368.15 K	11.58
373.15 K	11.01
378.15 K	10.36
383.13 K	9.778
388.14 K	9.175

From the NIST ThermoML archive (doi:10.1021/je060097q)
